Experimental data as given in patent US5703070A, “Indole, indazole and benzisoxazole compounds” (Adir et Compagnie, priority 1995, dated 1997).
Where two headings read alike, the source gives them in different places.

Legend:
[1] = test system: mesolimbic dopaminergic pathways; test: Verticalization test with apomorphine in mice (antipsychotic properties); settings: for ED50: Mus musculus, sc; for Verticalization (Apomorphine) ID50: mice
5-HT2C receptors [2] = target: T1, 5-HT2C receptors (Sus scrofa, UniProt K7GSR7); test: biochemical; type: binding; settings: Receptor profile Ki, 5-HT2C
T1 construct: from tissue; host or cells: pig choroid plexus (own knowledge of the cited method)
T1 sequence (K7GSR7 1-457): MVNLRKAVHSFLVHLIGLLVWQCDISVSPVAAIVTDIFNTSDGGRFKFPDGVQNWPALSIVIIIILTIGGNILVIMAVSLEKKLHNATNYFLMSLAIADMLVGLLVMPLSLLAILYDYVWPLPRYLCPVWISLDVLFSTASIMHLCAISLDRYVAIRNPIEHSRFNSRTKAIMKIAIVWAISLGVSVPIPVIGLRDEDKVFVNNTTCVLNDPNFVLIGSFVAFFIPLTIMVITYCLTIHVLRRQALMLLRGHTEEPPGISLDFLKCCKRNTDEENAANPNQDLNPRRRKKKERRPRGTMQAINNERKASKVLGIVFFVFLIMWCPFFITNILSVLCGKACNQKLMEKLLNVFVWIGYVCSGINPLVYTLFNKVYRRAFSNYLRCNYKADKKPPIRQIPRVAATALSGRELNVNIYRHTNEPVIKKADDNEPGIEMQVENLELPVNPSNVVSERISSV
Method: (§1) The interaction of these compounds with various receptors was determined by using conventional binding studies, such as those described by M. J. Millan et at. […] The affinities of the compounds are expressed in Ki.

D2 receptors = target: T2, D2 receptors (Rattus norvegicus, UniProt P61169); test: biochemical; type: binding
T2 construct: from tissue; host or cells: rat striatum (own knowledge of the cited method)
T2 sequence (P61169 whole entry): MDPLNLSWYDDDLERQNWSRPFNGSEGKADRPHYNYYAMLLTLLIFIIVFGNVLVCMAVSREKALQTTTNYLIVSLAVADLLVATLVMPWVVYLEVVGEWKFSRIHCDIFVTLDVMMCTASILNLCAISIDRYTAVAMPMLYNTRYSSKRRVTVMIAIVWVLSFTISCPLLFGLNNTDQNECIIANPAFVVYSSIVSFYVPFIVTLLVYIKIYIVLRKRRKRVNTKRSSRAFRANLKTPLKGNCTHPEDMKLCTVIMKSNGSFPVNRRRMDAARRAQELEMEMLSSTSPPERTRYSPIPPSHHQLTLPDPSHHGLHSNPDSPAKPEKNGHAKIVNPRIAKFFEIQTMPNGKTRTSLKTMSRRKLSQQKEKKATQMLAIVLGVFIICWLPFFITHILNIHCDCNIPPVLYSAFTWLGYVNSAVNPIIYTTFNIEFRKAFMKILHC
Method: as §1

5-HT2C receptors [3] = test: biochemical; type: binding; settings: ratio of Ki values D2 / 5-HT2C
Method: as §1

5-HT1A receptors = 5-HT1A receptors (Rattus norvegicus, UniProt P19327); test: biochemical; type: binding; settings: for D2 /5-HT1A: ratio of Ki values D2 / 5-HT1A
5-HT1A receptors, sequence (P19327 whole entry): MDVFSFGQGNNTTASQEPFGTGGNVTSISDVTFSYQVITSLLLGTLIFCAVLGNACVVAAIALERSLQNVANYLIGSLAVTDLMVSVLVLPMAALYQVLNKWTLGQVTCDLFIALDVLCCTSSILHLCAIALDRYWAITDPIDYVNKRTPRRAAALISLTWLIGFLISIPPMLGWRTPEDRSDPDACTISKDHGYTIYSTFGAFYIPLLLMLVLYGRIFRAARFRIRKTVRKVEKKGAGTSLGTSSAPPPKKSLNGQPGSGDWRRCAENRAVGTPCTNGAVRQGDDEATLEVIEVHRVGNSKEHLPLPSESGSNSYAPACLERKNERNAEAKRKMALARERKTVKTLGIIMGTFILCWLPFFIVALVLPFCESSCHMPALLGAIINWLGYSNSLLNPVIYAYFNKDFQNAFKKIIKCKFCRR
Method: as §1

5-HT2A receptors = target: T3, 5-HT2A receptors (Rattus norvegicus, UniProt P14842); test: Conventional binding studies, receptor profile: 5-HT2A; settings: for Ki: Receptor profile Ki, 5-HT2A; for D2 /5-HT2A: ratio of Ki values D2 / 5-HT2A
T3 construct: from tissue; host or cells: rat frontal cortex (own knowledge of the cited method)
T3 sequence (P14842 whole entry): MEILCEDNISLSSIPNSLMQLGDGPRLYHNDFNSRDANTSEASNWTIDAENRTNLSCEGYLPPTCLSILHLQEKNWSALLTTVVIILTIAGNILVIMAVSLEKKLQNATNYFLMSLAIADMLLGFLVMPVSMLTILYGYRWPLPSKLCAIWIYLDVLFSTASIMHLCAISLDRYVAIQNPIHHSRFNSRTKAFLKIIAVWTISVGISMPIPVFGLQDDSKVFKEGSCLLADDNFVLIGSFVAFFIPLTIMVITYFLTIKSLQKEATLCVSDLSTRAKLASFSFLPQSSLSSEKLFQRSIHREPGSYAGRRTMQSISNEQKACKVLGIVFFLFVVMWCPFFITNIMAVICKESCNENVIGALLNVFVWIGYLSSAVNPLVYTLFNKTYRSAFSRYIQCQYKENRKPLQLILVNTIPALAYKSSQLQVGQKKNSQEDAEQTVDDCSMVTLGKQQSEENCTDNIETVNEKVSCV
Method: as §1

in vivo = settings: rat, sc
schizophrenia = settings: cited from earlier work; for extrapyramidal syndrome: in vivo
[4] = test system: nigrostriatal dopaminergic transmission; settings: background, literature; cited from earlier work
[5] = test system: nigrostriatal dopaminergic transmission; test: Catalepsy in rats (extrapyramidal potential); settings: for ED50 /ID50 Ratio: catalepsy ED50 (rats) / verticalization ID50 (mice), hydrochloride
[6] = read-out: Verticalization (Apomorphine) ID50, mice, s.c. 30 min before test, apomorphine 0.75 mg/kg s.c.
[7] = read-out: Receptor profile Ki, D2
[8] = read-out: Receptor profile Ki, 5-HT1A
[9] = read-out: Verticalization (Apomorphine) ID50
[10] = s.c. 30 min before test, apomorphine 0.75 mg/kg s.c., hydrochloride

Compound | ED50 [1, 6] [mg/kg] | Ki (5-HT2C receptors [2]) [nM] | Ki (D2 receptors; [7]) [nM] | D2 /5-HT2C (5-HT2C receptors [3]) | D2 /5-HT1A (5-HT1A receptors) | Ki (5-HT1A receptors; [8]) [nM] | Ki (5-HT2A receptors) [nM] | D2 /5-HT2A (5-HT2A receptors) | ED50 at 0.5 h (in vivo) [mg/kg] | selectivity ratio (in vivo) | also measured
COc1ccc2[nH]cc(CCCN3CCC(CC(=O)c4ccc(F)cc4)C3)c2c1.Cl (racemic) [Ex. 3, 3-{3-[3-(4-Fluorobenzoylmethyl)pyrrolidin-1-yl]propyl}-5-methoxyindole hydrochloride] | 0.15 | 3.3 | 5.2 | 1.6 | 5.2 | 1 | 1 | 5.2 | > 40 | > 266 | –
CN1CCN(C2=Nc3cc(Cl)ccc3Nc3ccccc32)CC1 [Clozapine] | – | – | – | – | – | – | – | – | > 40 | – | Verticalization (Apomorphine) ID50 ([1]; s.c. 30 min before test, apomorphine 0.75 mg/kg s.c.): 2.2 mg/kg/S.C.; toxicity (schizophrenia; general treatment of schizophrenic conditions): due to its toxicity, clozapine cannot be envisaged in the general treatment of schizophrenic conditions; extrapyramidal syndrome (schizophrenia): virtually no extrapyramidal syndrome; cataleptogenic effect [4]: absence of cataleptogenic effect
COc1ccc2[nH]cc(CCN3CCC(CC(=O)c4ccc(F)cc4)C3)c2c1.Cl (centres unmarked) [Ex. 1, 3-{2-[3-(4-Fluorobenzoylmethyl)pyrrolidin-1-yl]ethyl}-5-methoxyindole hydrochloride] | – | 50 | – | 22 | 183 | – | 1.6 | 69 | > 40 | > 129 | ED50 [1, 9]: 0.31 mg/kg; Ki (D2 receptors): 110 nM; Ki (5-HT1A receptors; Receptor profile Ki, 5-HT1A): 0.6 nM
COc1ccc2c(c1)c(CCN1CCC(CC(=O)c3ccc(F)cc3)C1)cn2C.Cl (centres unmarked) [Ex. 2, 1-Methyl-3-{2-[3-(4-fluorobenzoylmethyl)pyrrolidin-1-yl]ethyl}-5-methoxyindole hydrochloride] | 1.25 | 16 | 132 | 8.3 | 0.9 | 141 | 1.3 | 101 | > 40 | > 32 | –
COc1ccc2[nH]cc(CCCN3CCC(CC(=O)c4ccc(F)cc4)C3)c2c1.Cl (centres unmarked) [Ex. 4, 3-{3-[3-(4-fluorobenzoylmethyl)pyrrolidin-1-yl]propyl}-5-methoxyindole hydrochloride] | – | 4 | 6.3 | – | – | 1.1 | 1.2 | – | > 40 | – | Verticalization (Apomorphine) ID50 [1, 10]: 0.3 mg/kg/S.C.; ED50 /ID50 Ratio [5]: > 133; D2 /5-HT2C (5-HT2C receptors [3]; hydrochloride): 1.6; D2 /5-HT1A (5-HT1A receptors; hydrochloride): 5.7; D2 /5-HT2A (5-HT2A receptors; hydrochloride): 5.2
COc1ccc2[nH]cc(CCCN3CCC(CC(=O)c4ccc(F)cc4)C3)c2c1.Cl (centres unmarked) [Ex. 5, 3-{3-[3-(4-fluorobenzoylmethyl)pyrrolidin-1-yl]propyl}-5-methoxyindole hydrochloride] | – | 3.8 | 7.1 | – | – | 0.4 | 1.7 | – | – | – | Verticalization (Apomorphine) ID50 [1, 10]: 0.13 mg/kg/S.C.; ED50 /ID50 Ratio [5]: > 307; Induction of catalepsy ED50 ([5]; rats, s.c. 30 min before test, dose inducing catalepsy for mean 15 seconds): > 40.0 mg/kg/S.C.; D2 /5-HT2C (5-HT2C receptors [3]; hydrochloride): 1.9; D2 /5-HT1A (5-HT1A receptors; hydrochloride): 17.8; D2 /5-HT2A (5-HT2A receptors; hydrochloride): 4.2
COc1ccc2c(c1)c(CCCN1CCC(CC(=O)c3ccc(F)cc3)C1)cn2C.Cl (centres unmarked) [Ex. 6, 1-Methyl-3-{3-[3-(4-fluorobenzoylmethyl)pyrrolidin-1-yl]propyl}-5-methoxyindole hydrochloride] | – | 17 | 15.4 | 0.9 | 0.4 | 39 | 4.3 | 3.6 | – | – | –
COc1ccc2[nH]cc(CCCN3CCCC(C(=O)c4ccc(F)cc4)CC3)c2c1.Cl (centres unmarked) [Ex. 7, 3-{3-[4-(4-Fluorobenzoyl)perhydroazepin-1-yl]propyl}-5-methoxyindole hydrochloride] | 0.5 | 117 | 43.5 | 0.4 | 62 | 0.7 | 2.7 | 1.6 | > 40 | > 80 | –
Cl.O=C(CC1CCN(CCCc2c[nH]c3ccc(F)cc23)C1)c1ccc(F)cc1 (centres unmarked) [Ex. 8, 3-{3-[3-(4-Fluorobenzoylmethyl)pyrrolidin-1-yl]propyl}-5-fluoroindole hydrochloride] | 0.5 | 19 | 9.5 | 0.5 | 0.8 | 12.3 | 6.6 | 1.4 | > 40 | > 80 | –
COc1ccc2[nH]cc(CCCN3CCC(Cc4noc5cc(F)ccc45)C3)c2c1.Cl (centres unmarked) [Ex. 9, 6-Fluoro-3-{1-[3-(5-methoxyindol-3-yl)propyl]pyrrolidin-3-ylmethyl}-1,2-benzisoxazole hydrochloride] | 1 | 7.9 | 98 | 13 | 143 | 0.7 | 3.2 | 31 | > 40 | > 40 | –
O=C(CCCN1CCC(O)(c2ccc(Cl)cc2)CC1)c1ccc(F)cc1 [Haloperidol] | – | – | – | – | – | – | – | – | 0.14 | – | ED50 [1, 9]: 0.01 mg/kg; extrapyramidal syndrome (schizophrenia): cause an extrapyramidal syndrome of Parkinsonian type; treatment of productive symptoms (schizophrenia; such as fantasizing and hallucinations): fairly well; effectiveness with respect to deficiency symptoms (schizophrenia; such as social withdrawal): very low
COc1ccc2[nH]cc(CCCN3CCC(C(=O)c4ccc(F)cc4)CC3)c2c1.Cl [Ref. A, 3-{3-[4-(4-Fluorobenzoyl)piperidin-1-yl]propyl}-5-methoxyindole hydrochloride, reference compound] | 0.1 | 98 | 11 | 0.1 | 2 | 5.6 | 8.5 | 1.3 | 1.4 | 14 | –
